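Method: 48-hour compound exposure of cells in 96-well plates, five concentrations, linear interpolation of endpoints. Here, GI50 denotes the concentration required for 50% inhibition of growth. TGI: concentration producing complete growth inhibition.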
Tested on: MDA-MB-468 breast
Assay: NCI tumour cell line growth inhibition, 48 h

CCN(Cc1cccc(OC)c1)c1ccc(CO)c(Cl)c1
GI50: 0.0174 µM | TGI: 0.0456 µM

Cc1ccc(C(=O)Nc2ccc(CN3CCN(C)CC3)c(C(F)(F)F)c2)cc1C#Cc1cnc(N)cc1C#N
GI50: 0.399 µM | TGI: 1.23 µM

CC12CCC3C(CC=C4CC(O)CCC43C)C1C/C(=C\N1CCCC1)C2=O (stereo not given)
GI50: 51.2 µM | TGI: > 100 µM

COc1ccc(-n2c(SCc3cc(OC)c(OC)c(OC)c3)nc3ccc(C)cc3c2=O)c(OC)c1
GI50: 3.16 µM | TGI: 9.38 µM

CC(=O)OC[C@H]1O[C@@H](n2ccc(=O)[nH]c2=O)[C@H](OC(C)=O)[C@@H]1OC(C)=O
GI50: > 100 µM | TGI: > 100 µM

Cc1ccc(C(CN(C)C)C(=O)c2ccccc2)cc1 (stereo not given)
GI50: 1.32 µM | TGI: 3.61 µM

CC1=C([Se]CC(OC(=O)CC[Se]c2ccccc2)C(=O)NCCCCCC(=O)OCc2ccccc2)C(=O)c2ccccc2C1=O (stereo not given)
GI50: 1.93 µM | TGI: 4.63 µM

C#Cc1cccc(Nc2ncnc3cc(OCCOC)c(OCCOC)cc23)c1
GI50: 0.124 µM | TGI: 2.81 µM

Cc1c(C#N)cccc1-c1cc(-c2cn(Cc3cccc(C(C)(C)O)n3)nn2)nc(N)n1
GI50: 7.58 µM | TGI: 55.6 µM

Cc1cn(C2CC(F)C(CO)O2)c(=O)[nH]c1=O (stereo not given)
GI50: > 100 µM | TGI: > 100 µM

O=C(/C=C/c1cccnc1)NCCCCC1CCN(C(=O)c2ccccc2)CC1
GI50: 27.5 µM | TGI: > 100 µM

C1CC[N-]CC1.C1CC[N-]CC1.C1CC[N-]CC1.C1CC[N-]CC1.[Cl][Rh][Cl]
GI50: 2.17 µM | TGI: 15.3 µM

C=C1[C@@H](C)[C@H]2[C@H](Cc3ccccc3)NC(=O)[C@]23OC(=O)/C=C/[C@H](O)CCC[C@@H](C)C/C=C/[C@H]3[C@@H]1O
GI50: 1.86 µM | TGI: > 100 µM

NC(=O)c1cnc(N[C@@H]2CCCC[C@@H]2N)nc1Nc1cccc(-n2nccn2)c1
GI50: 3.27 µM | TGI: 11.5 µM

COc1ccc(-c2cc(-c3ccc(OC)c(OC)c3)nc(SCCCC(=O)NO)n2)cc1
GI50: 1.18 µM | TGI: 3.44 µM

C=C1C(=O)O[C@H]2[C@H]1CC/C(COC(=O)NCc1cc3ccccc3[nH]1)=C\CC[C@@]1(C)O[C@@H]21
GI50: 1.06 µM | TGI: 3.4 µM

N#Cc1c(C(=O)c2ccccc2)cnn1-c1ccccc1
GI50: > 25 µM | TGI: > 25 µM

COCCn1cc(-c2csc(-c3c[nH]c4ccccc34)n2)c2cccnc21
GI50: 0.974 µM | TGI: 6.68 µM

CC(C)(C)N1CCC1C(N)=O (stereo not given)
GI50: > 100 µM | TGI: > 100 µM

C[C@]12CCC3[C@@H](C[C@@H]4SC(Nc5ccccc5)=N[C@@]45CC(=O)CC[C@]35C)[C@@H]1CCC2=O (stereo not given in full)
GI50: 3.59 µM | TGI: 14.6 µM
